{"source": "patent US20240239784A1", "about": "“INDOLE COMPOUNDS AND METHODS OF USE” (GENZYME CORPORATION, priority 2021, published 2024)", "data": [{"tested_on": "NBD1", "assay": "Aggregation analysis of NBD1 thermal stability by differential static light scattering (DSLS)", "type": "binding, Human", "settings": "compound at 100 μM; ΔTagg versus DMSO control", "procedure": "Purified recombinant NBD1 was produced using previously described methods (A. Schmidt, J. L. Mendoza, P. J. Thomas (2011) Biochemical and Biophysical Approaches to Probe CFTR Structure (365-376) M. D. Amaral, K. Kunzelmann (eds.), Cysic Fibrosis, Methods in Molecular Biology 741, Springer Science+Business Media). The effect of test compounds on thermal stability of NBD1 was evaluated by differential static light scattering (DSLS) using the Harbinger Stargazer-384 instrument (Epiphyte Three, Toronto, Canada). Test compounds were dissolved and diluted to desired concentrations in 100% DMSO. The compounds or DMSO controls (100 nL) were stamped into wells of a […] low volume optical plate (Corning Inc., Corning, NY) using the Echo 555 acoustic liquid handler (Labcyte Inc., San Jose, CA).\nNBD1 protein was diluted to 0.2 mg/ml in S200 buffer (50 mM Tris-HCl, 150 mM NaCl, 5 mM MgCl2, 2 mM ATP, 2 mM DTT, pH7.6) containing 1% glycerol. 10 uL of protein solution was aliquoted into the 384-well plate harboring the test compounds and 10 uL mineral oil was overlayed onto the protein solution, using the epMotion robotic liquid handler (Eppendorf North America, Hauppauge, NY). After placing into the Stargazer instrument, the plate was heated at 1° C. per minute to 70° C. Images were captured from 25° C. to 70° C. every 0.5° C. At the end of the experiment run, instrument software integrated image files and analyzed data automatically. A […] regression curve was generated for each well, representing the increase in light scattering over time. A temperature of aggregation (Tagg) was calculated based on the inflection point of the curve. To better compare data across experiments the average Tagg for DMSO control wells was calculated and subtracted from values for wells containing compounds to obtain a “ΔTagg” value. These ΔTagg values reflect stabilizing efficacy of the compounds.", "values": [{"smiles": "CS(=O)(=O)c1c(Oc2ccc(F)c(-c3nc(C(OCC(=O)O)c4ccccc4)c[nH]3)c2)c(F)cc2[nH]ccc12", "note": "(stereo not shown) [Example 73, 2-((2-(2-Fluoro-5-((6-fluoro-4-(methylsulfonyl)-1H-indol-5-yl)oxy)phenyl)-1H-imidazol-4-yl)(phenyl)methoxy)acetic acid]", "DSLS NBD1/3D Human Stability delta-T (° C.) @ 100 (μM)": "A (T ≥8° C.)"}, {"smiles": "COCCNC(=O)c1c(Oc2cccc(-c3nc(C(O)c4ccccc4)c[nH]3)c2)ccc2[nH]ccc12", "note": "(stereo not shown) [Example 82, 5-(3-(4-(Hydroxy(phenyl)methyl)-1H-imidazol-2-yl)phenoxy)-N-(2-methoxyethyl)-1H-indole-4-carboxamide]", "DSLS NBD1/3D Human Stability delta-T (° C.) @ 100 (μM)": "B (4-8° C.)"}, {"smiles": "O=C(O)c1c(Oc2cccc(-c3nc(C(O)c4ccccc4)c[nH]3)c2)ccc2[nH]ccc12", "note": "(stereo not shown) [Example 81, 5-(3-(4-(Hydroxy(phenyl)methyl)-1H-imidazol-2-yl)phenoxy)-1H-indole-4-carboxylic acid]", "DSLS NBD1/3D Human Stability delta-T (° C.) @ 100 (μM)": "B (4-8° C.)"}, {"smiles": "CC(=O)NCc1c(Oc2cccc(-c3ncc(C(O)c4ccccc4)[nH]3)c2)ccc2[nH]ccc12", "note": "(stereo not shown) [Example 18, N-((5-(3-(5-(Hydroxy(phenyl)methyl)-1H-imidazol-2-yl)phenoxy)-1H-indol-4-yl)methyl)acetamide]", "DSLS NBD1/3D Human Stability delta-T (° C.) @ 100 (μM)": "A (T ≥8° C.)"}, {"smiles": "CC(O)(c1ccccc1)c1cnc(-c2cccc(Oc3cc(F)c4[nH]ccc4c3)c2)[nH]1", "note": "(stereo not shown) [Example 69, 1-(2-(3-((7-Fluoro-1H-indol-5-yl)oxy)phenyl)-1H-imidazol-5-yl)-1-phenylethan-1-ol]", "DSLS NBD1/3D Human Stability delta-T (° C.) @ 100 (μM)": "B (4-8° C.)"}, {"smiles": "CN(C)CCNC(c1ccccc1)c1c[nH]c(-c2cccc(Oc3ccc4[nH]ccc4n3)c2)n1", "note": "(stereo not shown) [Example 54, N1-((2-(3-((1H-pyrrolo[3,2-b]pyridin-5-yl)oxy)phenyl)-1H-imidazol-5-yl)(phenyl)methyl)-N2,N2-dimethylethane-1,2-diamine]", "DSLS NBD1/3D Human Stability delta-T (° C.) @ 100 (μM)": "B (4-8° C.)"}, {"smiles": "NCc1nc(-c2cc(Oc3c(F)cc4[nH]ccc4c3F)ccc2F)[nH]c1Cc1ccccc1", "note": "[Example 80, (5-Benzyl-2-(5-((4,6-difluoro-1H-indol-5-yl)oxy)-2-fluorophenyl)-1H-imidazol-4-yl)methanamine]", "DSLS NBD1/3D Human Stability delta-T (° C.) @ 100 (μM)": "B (4-8° C.)"}, {"smiles": "Cc1c(Oc2ccc(F)c(-c3nc(C(C)(CO)c4ccccc4)c[nH]3)c2)c(F)cc2[nH]ccc12", "note": "(stereo not shown) [Example 77, 2-(2-(2-Fluoro-5-((6-fluoro-4-methyl-1H-indol-5-yl)oxy)phenyl)-1H-imidazol-4-yl)-2-phenylpropan-1-ol]", "DSLS NBD1/3D Human Stability delta-T (° C.) @ 100 (μM)": "B (4-8° C.)"}, {"smiles": "CC(c1ccccc1)c1c[nH]c(-c2cc(Oc3c(F)cc4[nH]ccc4c3CC3SC(=O)NC3=O)ccc2F)n1", "note": "(stereo not shown) [Example 2, 5-((6-Fluoro-5-(4-fluoro-3-(4-(1-phenylethyl)-1H-imidazol-2-yl)phenoxy)-1H-indol-4-yl)methyl)thiazolidine-2,4-dione]", "DSLS NBD1/3D Human Stability delta-T (° C.) @ 100 (μM)": "B (4-8° C.)"}, {"smiles": "CC(C)(c1ccccc1)c1cnc(-c2cc(Oc3c(F)cc4[nH]ccc4c3CC(=O)O)ccc2F)[nH]1", "note": "[Example 4, 2-(6-Fluoro-5-(4-fluoro-3-(5-(2-phenylpropan-2-yl)-1H-imidazol-2-yl)phenoxy)-1H-indol-4-yl)acetic acid]", "DSLS NBD1/3D Human Stability delta-T (° C.) @ 100 (μM)": "A (T ≥8° C.)"}, {"smiles": "CC(O)(c1ccccc1)c1cnc(-c2cccc(Oc3ccc4[nH]ccc4c3S(C)(=O)=O)c2)[nH]1", "note": "(single isomer, unassigned) [Example 63B, 1-(2-(3-((4-(methylsulfonyl)-1H-indol-5-yl)oxy)phenyl)-1H-imidazol-5-yl)-1-phenylethan-1-ol]", "DSLS NBD1/3D Human Stability delta-T (° C.) @ 100 (μM)": "B (4-8° C.)"}, {"smiles": "O=C(Cc1c(Oc2cccc(-c3nnc(Cc4ccccc4)[nH]3)c2)ccc2[nH]ccc12)NS(=O)(=O)C(F)(F)F", "note": "[Example 60, 2-(5-(3-(5-Benzyl-4H-1,2,4-triazol-3-yl)phenoxy)-1H-indol-4-yl)-N-((trifluoromethyl)sulfonyl)acetamide]", "DSLS NBD1/3D Human Stability delta-T (° C.) @ 100 (μM)": "A (T ≥8° C.)"}, {"smiles": "OCc1c(Oc2cccc(-c3nnc(Cc4ccccc4)[nH]3)c2)ccc2[nH]ccc12", "note": "[Example 20, (5-(3-(5-Benzyl-4H-1,2,4-triazol-3-yl)phenoxy)-1H-indol-4-yl)methanol]", "DSLS NBD1/3D Human Stability delta-T (° C.) @ 100 (μM)": "B (4-8° C.)"}, {"smiles": "COC(=O)c1c(Oc2cccc(-c3ncc(C(C)(O)c4ccccc4)[nH]3)c2)c(F)cc2[nH]ccc12", "note": "(stereo not shown) [Example 7, Methyl 6-fluoro-5-(3-(5-(1-hydroxy-1-phenylethyl)-1H-imidazol-2-yl)phenoxy)-1H-indole-4-carboxylate]", "DSLS NBD1/3D Human Stability delta-T (° C.) @ 100 (μM)": "B (4-8° C.)"}, {"smiles": "O=C(Cc1c(Oc2cccc(-c3nnc(Cc4ccccc4)[nH]3)c2)ccc2[nH]ccc12)NS(=O)(=O)C1CC1", "note": "[Example 12, 2-(5-(3-(5-Benzyl-4H-1,2,4-triazol-3-yl)phenoxy)-1H-indol-4-yl)-N-(cyclopropylsulfonyl)acetamide]", "DSLS NBD1/3D Human Stability delta-T (° C.) @ 100 (μM)": "A (T ≥8° C.)"}, {"smiles": "O=C(O)c1c(Oc2cccc(-c3ncc(C(O)c4ccccc4)[nH]3)c2)ccc2[nH]ncc12", "note": "(stereo not shown) [Example 27, 5-(3-(5-(Hydroxy(phenyl)methyl)-1H-imidazol-2-yl)phenoxy)-1H-indazole-4-carboxylic acid]", "DSLS NBD1/3D Human Stability delta-T (° C.) @ 100 (μM)": "C (≤4° C.)"}, {"smiles": "CC(C)(c1ccccc1)c1cnc(-c2cc(Oc3c(F)cc4[nH]ccc4c3CCC(=O)O)ccc2F)[nH]1", "note": "[Example 10, 3-(6-Fluoro-5-(4-fluoro-3-(5-(2-phenylpropan-2-yl)-1H-imidazol-2-yl)phenoxy)-1H-indol-4-yl)propanoic acid]", "DSLS NBD1/3D Human Stability delta-T (° C.) @ 100 (μM)": "A (T ≥8° C.)"}, {"smiles": "Nc1cnc(-c2nnc(Cc3ccccc3)[nH]2)cc1Oc1ccc2[nH]ccc2c1", "note": "[Example 44, 4-((1H-Indol-5-yl)oxy)-6-(5-benzyl-4H-1,2,4-triazol-3-yl)pyridin-3-amine]", "DSLS NBD1/3D Human Stability delta-T (° C.) @ 100 (μM)": "B (4-8° C.)"}, {"smiles": "NC(=O)Cc1c(Oc2cccc(-c3nnc(Cc4ccccc4)[nH]3)c2)ccc2[nH]ccc12", "note": "[Example 51, 2-(5-(3-(5-Benzyl-4H-1,2,4-triazol-3-yl)phenoxy)-1H-indol-4-yl)acetamide]", "DSLS NBD1/3D Human Stability delta-T (° C.) @ 100 (μM)": "B (4-8° C.)"}, {"smiles": "CNC(=O)CNC(=O)c1c(Oc2cccc(-c3ncc(C(O)c4ccccc4)[nH]3)c2)ccc2[nH]ncc12", "note": "(stereo not shown) [Example 28, 5-(3-(5-(Hydroxy(phenyl)methyl)-1H-imidazol-2-yl)phenoxy)-N-(2-(methylamino)-2-oxoethyl)-1H-indazole-4-carboxamide]", "DSLS NBD1/3D Human Stability delta-T (° C.) @ 100 (μM)": "B (4-8° C.)"}, {"smiles": "COCCS(=O)(=O)c1c(Oc2cccc(-c3ncc(C(C)(O)c4ccccc4)[nH]3)c2)c(F)cc2[nH]ccc12", "note": "(stereo not shown) [Example 61, 1-(2-(3-((6-Fluoro-4-((2-methoxyethyl)sulfonyl)-1H-indol-5-yl)oxy)phenyl)-1H-imidazol-5-yl)-1-phenylethan-1-ol]", "DSLS NBD1/3D Human Stability delta-T (° C.) @ 100 (μM)": "B (4-8° C.)"}, {"smiles": "O=C(O)CCc1c(Oc2cccc(-c3nnc(Cc4ccccc4)[nH]3)c2)ccc2[nH]ccc12", "note": "[Example 58, 3-(5-(3-(5-Benzyl-4H-1,2,4-triazol-3-yl)phenoxy)-1H-indol-4-yl)propanoic acid]", "DSLS NBD1/3D Human Stability delta-T (° C.) @ 100 (μM)": "A (T ≥8° C.)"}, {"smiles": "OC(c1ccccc1)c1cnc(-c2cccc(Oc3ccc4[nH]ccc4n3)c2)[nH]1", "note": "(stereo not shown) [Example 52, (2-(3-((1H-Pyrrolo[3,2-b]pyridin-5-yl)oxy)phenyl)-1H-imidazol-5-yl)(phenyl)methanol]", "DSLS NBD1/3D Human Stability delta-T (° C.) @ 100 (μM)": "B (4-8° C.)"}, {"smiles": "Nc1ccc(-c2n[nH]c(Cc3ccccc3)n2)cc1Oc1ccc2[nH]ccc2c1", "note": "[Example 49, 2-((1H-Indol-5-yl)oxy)-4-(5-benzyl-1H-1,2,4-triazol-3-yl)aniline]", "DSLS NBD1/3D Human Stability delta-T (° C.) @ 100 (μM)": "B (4-8° C.)"}, {"smiles": "OC(c1cccc(-c2nnc(Cc3ccccc3)[nH]2)c1)c1ccc2[nH]ccc2c1", "note": "(single isomer, unassigned) [Example 35A, (3-(5-Benzyl-4H-1,2,4-triazol-3-yl)phenyl)(1H-indol-5-yl)methanol]", "DSLS NBD1/3D Human Stability delta-T (° C.) @ 100 (μM)": "B (4-8° C.)"}, {"smiles": "CNCCS(=O)(=O)c1c(Oc2cccc(-c3ncc(C(C)(O)c4ccccc4)[nH]3)c2)c(F)cc2[nH]ccc12", "note": "(stereo not shown) [Example 64, 1-(2-(3-((6-Fluoro-4-((2-(methylamino)ethyl)sulfonyl)-1H-indol-5-yl)oxy)phenyl)-1H-imidazol-5-yl)-1-phenylethan-1-ol]", "DSLS NBD1/3D Human Stability delta-T (° C.) @ 100 (μM)": "A (T ≥8° C.)"}, {"smiles": "CS(=O)(=O)c1c(Oc2cccc(-c3ncc(C(O)c4ccccc4)[nH]3)c2)c(F)cc2[nH]ccc12", "note": "(stereo not shown) [Example 14, (2-(3-((6-Fluoro-4-(methylsulfonyl)-1H-indol-5-yl)oxy)phenyl)-1H-imidazol-5-yl)(phenyl)methanol]", "DSLS NBD1/3D Human Stability delta-T (° C.) @ 100 (μM)": "A (T ≥8° C.)"}, {"smiles": "CC(O)(c1ccccc1)c1cnc(-c2cccc(Oc3ccc4[nH]ccc4c3S(C)(=O)=O)c2)[nH]1", "note": "(single isomer, unassigned) [Example 63A, 1-(2-(3-((4-(methylsulfonyl)-1H-indol-5-yl)oxy)phenyl)-1H-imidazol-5-yl)-1-phenylethan-1-ol]", "DSLS NBD1/3D Human Stability delta-T (° C.) @ 100 (μM)": "A (T ≥8° C.)"}]}]}
